Measurements from US20260272924A1, “ISOINDOLINE DERIVATIVE, BENZOINDOLE DERIVATIVE AND USE THEREOF” (SHANGHAI HELIOSON PHARMACEUTICAL CO., LTD., priority 2023, published 2026).

Tested on: NCI-H929 multiple myeloma cells
Assay: Cell Titer-GLO (CTG) assay for proliferation of NCI-H929 cells
Assay type: cell-based
Settings: Homo sapiens, 72 hours
Procedure: 1. Experimental objective: To determine inhibitory activities of compounds on NCI-H929 multiple myeloma cells.
NCI-H929 cells, purchased from Nanjing Cobioer Biotechnology Co., Ltd, were cultured in RPM11640 (Viva; C3010-0500) medium containing 10% fetal bovine serum (Viva, C04002-500) and 1% of penicillin-streptomycin at 37° C. with 5% of C02 and saturated humidity conditions.
The cells in logarithmic growth phase were plated at 5000 cells per well of a 96-well plate and after overnight incubation, compounds at 0.00512 nM, 0.0256 nM, 0.128 nM, 0.64 nM, 3.2 nM, 16 nM, 80 nM, and 400 nM were dosed into the plate with each dose in 2 duplicate wells. Cells were incubated at 37° C., 5% CO2 for 72 hours. After the incubation, the plate was placed at room temperature for half an hour, and then 50 μL of Cell Titer-Glo® (Promega, G7573) was added. The plate was placed on a shaker for uniform mixing for 2 minutes and was placed in the dark at room temperature for 10 minutes. The luminance signal was measured using SpectraMax Paradigm (Molecular Devices).
Cell activity inhibition rate (%)=1 00−(RLUcompound−RLUblank)/(RLUcontrol−RLUblank)×100%, where control refers to the 0.1% DMSO treatment group, and blank refers to the culture medium control. IC50 values and maximum inhibition rates of the compounds were calculated using a nonlinear regression function “Dose-Response-Inhibition” in Graphpad Prism 7.0.

| Compound | IC50 |
| --- | --- |
| O=C1CCC(N2C(=O)c3cccc4c(Cc5ccc(CN6CC(N7CCN(c8cccc(-n9ccnc9)n8)CC7)C6)cc5)ccc2c34)C(=O)N1 (centres unmarked) [Example 32] | < 0.005 nM |
| [2H]C([2H])(c1ccc(Cc2ccc3c4c(cccc24)C(=O)N3C2CCC(=O)NC2=O)cc1)N1CCN(c2cc(-n3cnc(C(F)(F)F)c3)nc(C)n2)CC1 (centres unmarked) [Example 82, 3-(6-(4-((4-(2-methyl-6-(4-(trifluoromethyl)-1H-imidazol-1-yl)pyrimidin-4-yl)piperazin-1-yl)methyl-d2)benzyl)-2-oxobenzo[cd]indol-1(2H)-yl)piperidin-2,6-dione] | 0.02 nM |
| Cc1ncn(-c2cccc(N3CCN(Cc4ccc(COc5cccc6c5CN([C@H]5CCC(=O)NC5=O)C6=O)cc4)CC3)n2)n1 [Example 66, (S)-3-(4-((4-((4-(6-(3-methyl-1H-1,2,4-triazol-1-yl)pyridin-2-Vl)piperazin-1-yl)methyl)benzyl)oxy)-1-oxoisoindolin-2-yl)piperidin-2,6-dione] | 0.1 nM |
| O=C1CCC(N2C(=O)c3cccc4c(Cc5ccc(CN6CCN(c7cccc(-n8cnc(C(F)(F)F)n8)n7)CC6)cc5)ccc2c34)C(=O)N1 (centres unmarked) [Example 62, 3-(2-oxo-6-(4-((4-(6-(3-(trifluoromethyl)-1H-1,2,4-triazol-1-yl)pyridin-2-yl)piperazin-1-yl)methyl)benzyl)benzo[cd]indol-1(2H)-yl)piperidin-2,6-dione] | 0.07 nM |
| Cn1c(-c2nccc(N3CCN(Cc4ccc(Cc5ccc6c7c(cccc57)C(=O)N6C5CCC(=O)NC5=O)cc4)CC3)n2)cnc1C(F)(F)F (centres unmarked) [Example 61, 3-(6-(4-((4-(2-(1-methyl-2-(trifluoromethyl)-1H-imidazol-5-yl)pyrimidin-4-yl)piperazin-1-yl)methyl)benzyl)-2-oxobenzo[cd]indol-1(2H)-yl)piperidin-2,6-dione] | 0.02 nM |
| CC(C)N1CCN=C1c1cccc(N2CCN(Cc3ccc(Cc4ccc5c6c(cccc46)C(=O)N5C4CCC(=O)NC4=O)cc3)CC2)n1 (centres unmarked) [Example 79, 3-(6-(4-((4-(6-(1-isopropyl-4,5-dihydro-1H-imidazol-2-yl)pyridin-2-yl)piperazin-1-yl)methyl)benzyl)-2-oxobenzo[cd]indol-1(2H)-yl)piperidin-2,6-dione] | 1.6 nM |
| O=C1CCC(N2C(=O)c3cccc4c(Cc5ccc(CN6CCN(c7cc(C(F)(F)F)nc(-c8cncs8)n7)CC6)cc5)ccc2c34)C(=O)N1 (centres unmarked) [Example 59, 3-(2-oxo-6-(4-((4-(2-(thiazol-5-yl)-6-(trifluoromethyl)pyrimidin-4-yl)piperazin-1-yl)methyl)benzyl)benzo[cd]indol-1(2H)-yl)piperidin-2,6-dione] | 0.2 nM |
| Cc1nc(N2CCN(C3CN(Cc4ccc(Cc5ccc6c7c(cccc57)C(=O)N6C5CCC(=O)NC5=O)cc4)C3)CC2)cc(-n2cnc(C(F)(F)F)c2)n1 (centres unmarked) [Example 54, 3-(6-(4-((3-(4-(2-methyl-6-(4-(trifluoromethyl)-1H-imidazol-1-yl)pyrimidin-4-yl)piperazin-1-yl)azetidin-1-yl)methyl)benzyl)-2-oxobenzo[cd]indol-1(2H)-yl)piperidin-2,6-dione] | 0.004 nM |
| Cc1noc(C)c1-c1nccc(N2CCN(Cc3ccc(Cc4ccc5c6c(cccc46)C(=O)N5C4CCC(=O)NC4=O)cc3)CC2)n1 (centres unmarked) [Example 65, 3-(6-(4-((4-(2-(3,5-dimethylisoxazol-4-yl)pyrimidin-4-yl)piperazin-1-yl)methyl)benzyl)-2-oxobenzo[cd]indol-1(2H)-yl)piperidin-2,6-dione] | 0.03 nM |
| O=C1CCC(N2C(=O)c3cccc4c(Cc5ccc(CN6CCN(c7nc(-c8cncs8)ncc7F)CC6)cc5)ccc2c34)C(=O)N1 (centres unmarked) [Example 60, 3-(6-(4-((4-(5-fluoro-2-(thiazol-5-yl)pyrimidin-4-yl)piperazin-1-yl)methyl)benzyl)-2-oxobenzo[cd]indol-1(2H)-yl)piperidin-2,6-dione] | 0.03 nM |
| Cc1nc(N2CCN(Cc3ccc(Cc4ccc5c6c(cccc46)C(=O)N5C4CCC(=O)NC4=O)cc3)CC2)cc(-n2cnc(Cl)c2)n1 (centres unmarked) [Example 50, 3-(6-(4-((4-(6-(-4-chloro-1H-imidazol-1-yl)-2-methylpyrimidin-4-yl)piperazin-1-yl)methyl)benzyl)-2-oxobenzo[cd]indol-1(2H)-yl)piperidin-2,6-dione] | 0.01 nM |
| O=C1CC[C@H](N2Cc3c(OCc4ccc(CN5CCN(c6cccc(-c7cncs7)n6)CC5)cc4)cccc3C2=O)C(=O)N1 [Example 19, (S)-3-(1-oxo-4-((4-((4-(6-(thiazol-5-yl)pyridin-2-yl)piperazin-1-yl)methyl)benzyl)oxy)isoindolin-2-yl)piperidin-2,6-dione] | 0.3 nM |
| Cc1ncn(-c2nc(N3CCN(C4CN(Cc5ccc(Cc6ccc7c8c(cccc68)C(=O)N7C6CCC(=O)NC6=O)cc5)C4)CC3)cc(C(F)(F)F)n2)n1 (centres unmarked) [Example 52, 3-(6-(4-((3-(4-(2-(3-methyl-1H-1,2,4-triazol-1-yl)-6-(trifluoromethyl)pyrimidin-4-yl)piperazin-1-yl)azetidin-1-yl)methyl)benzyl)-2-oxobenzo[cd]indol-1(2H)-yl)piperidin-2,6-dione] | 0.01 nM |
| N#Cc1cn(-c2nc(N3CCN(Cc4ccc(Cc5ccc6c7c(cccc57)C(=O)N6C5CCC(=O)NC5=O)cc4)CC3)cc(C(F)(F)F)n2)cn1 (centres unmarked) [Example 75, 3-(6-(4-((4-(2-(4-cyano-1H-imidazol-1-yl)-6-(trifluoromethyl)pyrimidin-4-yl)piperazin-1-yl)methyl)benzyl)-2-oxobenzo[cd]indol-1(2H)-yl)piperidin-2,6-dione] | 0.02 nM |
| Cc1nc(N2CCN(C3CN(Cc4ccc(Cc5ccc6c7c(cccc57)C(=O)N6C5CCC(=O)NC5=O)cc4)C3)CC2)cc(-n2cnc(C)n2)n1 (centres unmarked) [Example 48, 3-(6-(4-((3-(4-(2-methyl-6-(3-methyl-1H-1,2,4-triazol-1-yl)pyrimidin-4-yl)piperazin-1-yl)azetidin-1-yl)methyl)benzyl)-2-oxobenzo[cd]indol-1(2H)-yl)piperidin-2,6-dione] | 0.002 nM |
| CC(C)n1cnnc1-c1cccc(N2CCN(Cc3ccc(Cc4ccc5c6c(cccc46)C(=O)N5C4CCC(=O)NC4=O)cc3)CC2)n1 (centres unmarked) [Example 24, 3-(6-(4-((4-(6-(4-isopropyl-4H-1,2,4-triazol-3-yl)pyridin-2-yl)piperazin-1-yl)methyl)benzyl)-2-oxobenzo[cd]indol-1(2H)-yl)piperidin-2,6-dione] | 0.1 nM |
| Cc1cc(C(=O)N2CCN(Cc3ccc(Cc4ccc5c6c(cccc46)C(=O)N5C4CCC(=O)NC4=O)cc3)CC2)nc(-n2ccnc2)n1 (centres unmarked) [Example 11, 3-(6-(4-((4-(2-(1H-imidazol-1-yl)-6-methylpyrimidin-4-carbonyl)piperazin-1-yl)methyl)benzyl)-2-oxobenzo[cd]indol-1(2H)-yl)piperidin-2,6-dione] | 0.05 nM |
| O=C1CCC(N2C(=O)c3cccc4c(Cc5ccc(CN6CCN(C7CCN(c8ccnc(-n9cnc(C(F)(F)F)c9)n8)CC7)CC6)cc5)ccc2c34)C(=O)N1 (centres unmarked) [Example 40, 3-(2-oxo-6-(4-((4-(1-(2-(4-(trifluoromethyl)-1H-imidazol-1-yl)pyrimidin-4-yl)piperidin-4-yl)piperazin-1-yl)methyl)benzyl)benzo[cd]indol-1(2H)-yl)piperidin-2,6-dione] | 0.01 nM |
| Cn1cncc1-c1nccc(N2CCN(Cc3ccc(Cc4ccc5c6c(cccc46)C(=O)N5C4CCC(=O)NC4=O)cc3)CC2)n1 (centres unmarked) [Example 20, 3-(6-(4-((4-(2-(1-methyl-1H-imidazol-5-yl)pyrimidin-4-yl)piperazin-1-yl)methyl)benzyl)-2-oxobenzo[cd]indol-1(2H)-yl)piperidin-2,6-dione] | 0.01 nM |
| Cc1cc(N2CCN(Cc3ccc(Cc4ccc5c6c(cccc46)C(=O)N5C4CCC(=O)NC4=O)cc3)CC2)nc(-n2ccnc2)n1 (centres unmarked) [Example 10, 3-(6-(4-((4-(2-(1H-imidazol-1-yl)-6-methylpyrimidin-4-yl)piperazin-1-yl)methyl)benzyl)-2-oxobenzo[cd]indol-1(2H)-yl)piperidin-2,6-dione] | 0.03 nM |
| Cc1nnc(-c2ncc(F)c(N3CCN(Cc4ccc(Cc5ccc6c7c(cccc57)C(=O)N6C5CCC(=O)NC5=O)cc4)CC3)n2)s1 (centres unmarked) [Example 42, 3-(6-(4-((4-(5-fluoro-2-(5-methyl-1,3,4-thiadiazol-2-yl)pyrimidin-4-yl)piperazin-1-yl)methyl)benzyl)-2-oxobenzo[cd]indol-1(2H)-yl)piperidin-2,6-dione] | 0.01 nM |
| O=C1CCC(N2C(=O)c3cccc4c(Cc5ccc(CN6CCN(c7cccc(-c8nnc(C(F)(F)F)s8)n7)CC6)cc5)ccc2c34)C(=O)N1 (centres unmarked) [Example 63, 3-(2-oxo-6-(4-((4-(6-(5-(trifluoromethyl)-1,3,4-thiadiazol-2-yl)pyridin-2-yl)piperazin-1-yl)methyl)benzyl)benzo[cd]indol-1(2H)-yl)piperidin-2,6-dione] | 0.2 nM |
| Cc1ncn(-c2cccc(N3CCN(C4CN(Cc5ccc(Cc6ccc7c8c(cccc68)C(=O)N7C6CCC(=O)NC6=O)cc5)C4)CC3)n2)n1 (centres unmarked) [Example 53, 3-(6-(4-((3-(4-(6-(3-methyl-1H-1,2,4-triazol-1-yl)pyridin-2-yl)piperazin-1-yl)azetidin-1-yl)methyl)benzyl)-2-oxobenzo[cd]indol-1(2H)-yl)piperidin-2,6-dione] | 0.003 nM |
